Assay results published in ChEMBL document CHEMBL5038625, “Application of the dual-tail approach for the design and synthesis of novel Thiopyrimidine-Benzenesulfonamide hybrids as selective carbonic anhydrase inhibitors” (Eur J Med Chem, 2022).

Legend:
[1] = tested on: MDA-MB-231; assay: Antiproliferative activity against human MDA-MB-231 cells assessed as cell growth inhibition at 10 uM incubated for 24 hrs by sulforhodamine B assay; type: functional; settings: read-out: GI
[2] = tested on: LOX IMVI; assay: Antiproliferative activity against human LOX IMVI cells assessed as cell growth inhibition at 10 uM incubated for 24 hrs by sulforhodamine B assay; type: functional; settings: read-out: GI
[3] = tested on: NCI-H23; assay: Antiproliferative activity against human NCI-H23 cells assessed as cell growth inhibition at 10 uM incubated for 24 hrs by sulforhodamine B assay; type: functional; settings: read-out: GI
[4] = tested on: NCI-H522; assay: Antiproliferative activity against human NCI-H522 cells assessed as cell growth inhibition at 10 uM incubated for 24 hrs by sulforhodamine B assay; type: functional; settings: read-out: GI
[5] = tested on: T47D; assay: Antiproliferative activity against human T47D cells assessed as reduction in cell viability incubated for 24 hrs by sulforhodamine B assay; type: functional, cell-based
[6] = tested on: NCI-H226; assay: Antiproliferative activity against human NCI-H226 cells assessed as cell growth inhibition at 10 uM incubated for 24 hrs by sulforhodamine B assay; type: functional; settings: read-out: GI
[7] = tested on: SK-OV-3; assay: Antiproliferative activity against human SK-OV-3 cells assessed as cell growth inhibition at 10 uM incubated for 24 hrs by sulforhodamine B assay; type: functional; settings: read-out: GI
[8] = target: Carbonic anhydrase 9 (Homo sapiens, UniProt Q16790); assay: Inhibition of human CA9 preincubated for 15 mins by phenol red dye based stopped flow CO2 hydration assay
[9] = tested on: MCF7; assay: Antiproliferative activity against human MCF7 cells assessed as cell growth inhibition at 10 uM incubated for 24 hrs by sulforhodamine B assay; type: functional; settings: read-out: GI
[10] = tested on: HL-60; assay: Antiproliferative activity against human HL-60 cells assessed as cell growth inhibition at 10 uM incubated for 24 hrs by sulforhodamine B assay; type: functional; settings: read-out: GI
[11] = tested on: UO-31; assay: Antiproliferative activity against human UO-31 cells assessed as cell growth inhibition at 10 uM incubated for 24 hrs by sulforhodamine B assay; type: functional; settings: read-out: GI
[12] = tested on: MCF7; assay: Antiproliferative activity against human MCF7 cells assessed as reduction in cell viability incubated for 24 hrs by sulforhodamine B assay; type: functional, cell-based; settings: MCF7, 24 h
[13] = tested on: UACC-62; assay: Antiproliferative activity against human UACC-62 cells assessed as cell growth inhibition at 10 uM incubated for 24 hrs by sulforhodamine B assay; type: functional; settings: read-out: GI
[14] = tested on: MDA-MB-468; assay: Antiproliferative activity against human MDA-MB-468 cells assessed as cell growth inhibition at 10 uM incubated for 24 hrs by sulforhodamine B assay; type: functional; settings: read-out: GI
[15] = tested on: RXF 393; assay: Antiproliferative activity against human RXF 393 cells assessed as cell growth inhibition at 10 uM incubated for 24 hrs by sulforhodamine B assay; type: functional; settings: read-out: GI
[16] = tested on: CAKI-1; assay: Antiproliferative activity against human CAKI-1 cells assessed as cell growth inhibition at 10 uM incubated for 24 hrs by sulforhodamine B assay; type: functional; settings: read-out: GI
[17] = tested on: MDA-MB-231; assay: Antiproliferative activity against human MDA-MB-231 cells assessed as reduction in cell viability incubated for 24 hrs by sulforhodamine B assay; type: functional, cell-based; settings: MDA-MB-231, 24 h
[18] = tested on: 786-0; assay: Antiproliferative activity against human 786-0 cells assessed as cell growth inhibition at 10 uM incubated for 24 hrs by sulforhodamine B assay; type: functional; settings: read-out: GI
[19] = tested on: ACHN; assay: Antiproliferative activity against human ACHN cells assessed as cell growth inhibition at 10 uM incubated for 24 hrs by sulforhodamine B assay; type: functional; settings: read-out: GI
[20] = tested on: SF-539; assay: Antiproliferative activity against human SF-539 cells assessed as cell growth inhibition at 10 uM incubated for 24 hrs by sulforhodamine B assay; type: functional; settings: read-out: GI
[21] = tested on: PC-3; assay: Antiproliferative activity against human PC-3 cells assessed as cell growth inhibition at 10 uM incubated for 24 hrs by sulforhodamine B assay; type: functional; settings: read-out: GI
[22] = tested on: SR; assay: Antiproliferative activity against human SR cells assessed as cell growth inhibition at 10 uM incubated for 24 hrs by sulforhodamine B assay; type: functional; settings: read-out: GI
[23] = tested on: DU-145; assay: Antiproliferative activity against human DU-145 cells assessed as cell growth inhibition at 10 uM incubated for 24 hrs by sulforhodamine B assay; type: functional; settings: read-out: GI
[24] = tested on: NCI-H460; assay: Antiproliferative activity against human NCI-H460 cells assessed as cell growth inhibition at 10 uM incubated for 24 hrs by sulforhodamine B assay; type: functional; settings: read-out: GI
[25] = tested on: A498; assay: Antiproliferative activity against human A498 cells assessed as cell growth inhibition at 10 uM incubated for 24 hrs by sulforhodamine B assay; type: functional; settings: read-out: GI
[26] = tested on: SK-MEL-5; assay: Antiproliferative activity against human SK-MEL-5 cells assessed as cell growth inhibition at 10 uM incubated for 24 hrs by sulforhodamine B assay; type: functional; settings: read-out: GI
[27] = tested on: SN12C; assay: Antiproliferative activity against human SN12C cells assessed as cell growth inhibition at 10 uM incubated for 24 hrs by sulforhodamine B assay; type: functional; settings: read-out: GI
[28] = tested on: EKVX; assay: Antiproliferative activity against human EKVX cells assessed as cell growth inhibition at 10 uM incubated for 24 hrs by sulforhodamine B assay; type: functional; settings: read-out: GI
[29] = tested on: SF-295; assay: Antiproliferative activity against human SF-295 cells assessed as cell growth inhibition at 10 uM incubated for 24 hrs by sulforhodamine B assay; type: functional; settings: read-out: GI
[30] = tested on: A549; assay: Antiproliferative activity against human A549 cells assessed as cell growth inhibition at 10 uM incubated for 24 hrs by sulforhodamine B assay; type: functional; settings: read-out: GI
[31] = tested on: BT-549; assay: Antiproliferative activity against human BT-549 cells assessed as cell growth inhibition at 10 uM incubated for 24 hrs by sulforhodamine B assay; type: functional; settings: read-out: GI
[32] = tested on: HOP-92; assay: Antiproliferative activity against human HOP-92 cells assessed as cell growth inhibition at 10 uM incubated for 24 hrs by sulforhodamine B assay; type: functional; settings: read-out: GI
[33] = tested on: K562; assay: Antiproliferative activity against human K562 cells assessed as cell growth inhibition at 10 uM incubated for 24 hrs by sulforhodamine B assay; type: functional; settings: read-out: GI
[34] = tested on: T47D; assay: Antiproliferative activity against human T47D cells assessed as cell growth inhibition at 10 uM incubated for 24 hrs by sulforhodamine B assay; type: functional; settings: read-out: GI
[35] = Antiproliferative activity against human […] cells assessed as cell growth inhibition at 10 uM incubated for 24 hrs by sulforhodamine B assay; type: functional; settings: read-out: GI
[36] = tested on: SNB-19; assay: Antiproliferative activity against human SNB-19 cells assessed as cell growth inhibition at 10 uM incubated for 24 hrs by sulforhodamine B assay; type: functional; settings: read-out: GI
[37] = tested on: KM12; assay: Antiproliferative activity against human KM12 cells assessed as cell growth inhibition at 10 uM incubated for 24 hrs by sulforhodamine B assay; type: functional; settings: read-out: GI
[38] = tested on: OVCAR-8; assay: Antiproliferative activity against human OVCAR-8 cells assessed as cell growth inhibition at 10 uM incubated for 24 hrs by sulforhodamine B assay; type: functional; settings: read-out: GI
[39] = tested on: RPMI-8226; assay: Antiproliferative activity against human RPMI-8226 cells assessed as cell growth inhibition at 10 uM incubated for 24 hrs by sulforhodamine B assay; type: functional; settings: read-out: GI
[40] = tested on: SNB-75; assay: Antiproliferative activity against human SNB-75 cells assessed as cell growth inhibition at 10 uM incubated for 24 hrs by sulforhodamine B assay; type: functional; settings: read-out: GI
[41] = tested on: HCT-15; assay: Antiproliferative activity against human HCT-15 cells assessed as cell growth inhibition at 10 uM incubated for 24 hrs by sulforhodamine B assay; type: functional; settings: read-out: GI
[42] = tested on: MOLT-4; assay: Antiproliferative activity against human MOLT-4 cells assessed as cell growth inhibition at 10 uM incubated for 24 hrs by sulforhodamine B assay; type: functional; settings: read-out: GI
[43] = tested on: CCRF-CEM; assay: Antiproliferative activity against human CCRF-CEM cells assessed as cell growth inhibition at 10 uM incubated for 24 hrs by sulforhodamine B assay; type: functional; settings: read-out: GI
[44] = tested on: OVCAR-4; assay: Antiproliferative activity against human OVCAR-4 cells assessed as cell growth inhibition at 10 uM incubated for 24 hrs by sulforhodamine B assay; type: functional; settings: read-out: GI
[45] = tested on: HCT-116; assay: Antiproliferative activity against human HCT-116 cells assessed as cell growth inhibition at 10 uM incubated for 24 hrs by sulforhodamine B assay; type: functional; settings: read-out: GI
[46] = tested on: U-251; assay: Antiproliferative activity against human U-251 cells assessed as cell growth inhibition at 10 uM incubated for 24 hrs by sulforhodamine B assay; type: functional; settings: read-out: GI
[47] = tested on: Hs-578T; assay: Antiproliferative activity against human HS-578T cells assessed as cell growth inhibition at 10 uM incubated for 24 hrs by sulforhodamine B assay; type: functional; settings: read-out: GI
[48] = tested on: MDA-MB-435; assay: Antiproliferative activity against human MDA-MB-435 cells assessed as cell growth inhibition at 10 uM incubated for 24 hrs by sulforhodamine B assay; type: functional; settings: read-out: GI
[49] = tested on: Malme-3M; assay: Antiproliferative activity against human Malme-3M cells assessed as cell growth inhibition at 10 uM incubated for 24 hrs by sulforhodamine B assay; type: functional; settings: read-out: GI

CC(C)c1nc(SCC(=O)c2ccccc2)nc(Nc2ccc(S(N)(=O)=O)cc2)c1C#N
inhibition of growth at 10 µM [1]: 5.5% | inhibition of growth at 10 µM [2]: 16.5% | inhibition of growth at 10 µM [3]: 13.1% | inhibition of growth at 10 µM [4]: 10.1% | IC50 [5]: 46.4 µM | inhibition of growth at 10 µM [6]: 11.8% | inhibition of growth at 10 µM [7]: 5.58% | Ki [8]: 0.0966 µM | inhibition of growth at 10 µM [9]: 11.4% | inhibition of growth at 10 µM [10]: 5.93% | inhibition of growth at 10 µM [11]: 36.3% | IC50 [12]: 47.6 µM | inhibition of growth at 10 µM [13]: 10.2% | inhibition of growth at 10 µM [14]: 9.86% | inhibition of growth at 10 µM [15]: 13.8% | inhibition of growth at 10 µM [16]: 8.76% | IC50 [17]: 21 µM | inhibition of growth at 10 µM [18]: 5.2% | inhibition of growth at 10 µM [19]: 7.34%

COc1ccc(OC)c(-c2nc(SCC(=O)c3ccccc3)nc(Nc3ccc(S(N)(=O)=O)cc3)c2C#N)c1
inhibition of growth at 10 µM [1]: 23.6% | inhibition of growth at 10 µM [2]: 17.7% | inhibition of growth at 10 µM [20]: 27.1% | inhibition of growth at 10 µM [21]: 20.6% | inhibition of growth at 10 µM [22]: 22.7% | inhibition of growth at 10 µM [23]: 8.97% | inhibition of growth at 10 µM [24]: 10.9% | inhibition of growth at 10 µM [4]: 6.74% | IC50 [5]: > 100 µM | inhibition of growth at 10 µM [25]: 30.7% | inhibition of growth at 10 µM [26]: 5.91% | inhibition of growth at 10 µM [27]: 14.1% | inhibition of growth at 10 µM [6]: 7.28% | inhibition of growth at 10 µM [28]: 11.3% | inhibition of growth at 10 µM [29]: 10.3% | inhibition of growth at 10 µM [30]: 10.8% | inhibition of growth at 10 µM [31]: 8.03% | inhibition of growth at 10 µM [32]: 52% | inhibition of growth at 10 µM [33]: 14.6% | inhibition of growth at 10 µM [34]: 20.4% | inhibition of growth at 10 µM [35]: 10.1% | inhibition of growth at 10 µM [36]: 9.28% | Ki [8]: 0.0877 µM | inhibition of growth at 10 µM [9]: 14.7% | inhibition of growth at 10 µM [37]: 8.89% | inhibition of growth at 10 µM [38]: 7.32% | inhibition of growth at 10 µM [39]: 18.1% | inhibition of growth at 10 µM [10]: 8.52% | inhibition of growth at 10 µM [11]: 29.1% | inhibition of growth at 10 µM [40]: 18.4% | IC50 [12]: > 100 µM | inhibition of growth at 10 µM [41]: 26.3% | inhibition of growth at 10 µM [13]: 5.35% | inhibition of growth at 10 µM [42]: 30.1% | inhibition of growth at 10 µM [14]: 18.3% | inhibition of growth at 10 µM [15]: 25.6% | inhibition of growth at 10 µM [43]: 10.7% | inhibition of growth at 10 µM [44]: 14.9% | inhibition of growth at 10 µM [45]: 7.67% | inhibition of growth at 10 µM [16]: 23.3% | inhibition of growth at 10 µM [46]: 9.25% | IC50 [17]: > 100 µM | inhibition of growth at 10 µM [47]: 6.75% | inhibition of growth at 10 µM [48]: 7.57% | inhibition of growth at 10 µM [18]: 12.6% | inhibition of growth at 10 µM [19]: 6.95% | inhibition of growth at 10 µM [49]: 6.7%
